Assay results taken from publication PMC8222254, “Self-assembly of an anion receptor with metal-dependent kinase inhibition and potent in vitro anti-cancer properties” (Nature Communications, 2021).
“And” between values parts separate entries of the source, which are not always exact repeats. Equal entries are not always repeated. Where two headings read alike, the source gives them in different places.

Tests used:
Assay in all cases: Chemosensitivity, 96 h continuous exposure, MTT assay
Assay type in all cases: cell-based, human
[1] = test system: BxPC3; settings: for IC50 / Selectivity indices relative to ARPE-19, Ratio + anion:no anion / Selectivity indices relative to MCF10A, Ratio + anion:no anion: BXPC3; for Selectivity index (ARPE19): IC50 ARPE-19 / IC50 BXPC3; for Selectivity index (MCF10A): IC50 MCF10A / IC50 BXPC3; for Relative potency (+ anion to no anion), Ratio + anion:no anion: ratio of IC50, BXPC3; for Selectivity indices relative to ARPE-19, Ratio + anion:no anion: ratio of SI (ARPE-19); for Selectivity indices relative to MCF10A, Ratio + anion:no anion: ratio of SI (MCF 10A)
Method in brief: (§1)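 Cells seeded at 2 × 10^3/well (GBM1 3 × 10^3/well) and left overnight at 37 °C, then exposed continuously for 96 h to a range of compound concentrations (final DMSO 0.2%). Viability read by MTT, absorbance at 540 nm; IC50 taken from dose-response curves as concentration reducing cell growth by 50%.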

[2] = test system: DLD-1; settings: for IC50 / Selectivity indices relative to ARPE-19, Ratio + anion:no anion / Selectivity indices relative to MCF10A, Ratio + anion:no anion: DLD-1; for Selectivity index (ARPE19): IC50 ARPE-19 / IC50 DLD-1; for Selectivity index (MCF10A): IC50 MCF10A / IC50 DLD-1; for Relative potency (+ anion to no anion), Ratio + anion:no anion: ratio of IC50, DLD-1; for Selectivity indices relative to ARPE-19, Ratio + anion:no anion: ratio of SI (ARPE-19); for Selectivity indices relative to MCF10A, Ratio + anion:no anion: ratio of SI (MCF 10A)
Method in brief: as §1

[3] = test system: MiaPaCa2; settings: for Selectivity index (ARPE19): IC50 ARPE-19 / IC50 MiaPaCa2; for Selectivity index (MCF10A): IC50 MCF10A / IC50 MiaPaCa2; for IC50 / Selectivity indices relative to ARPE-19, Ratio + anion:no anion / Selectivity indices relative to MCF10A, Ratio + anion:no anion: MiaPaCa2; for Relative potency (+ anion to no anion), Ratio + anion:no anion: ratio of IC50, MiaPaCa2; for Selectivity indices relative to ARPE-19, Ratio + anion:no anion: ratio of SI (ARPE-19); for Selectivity indices relative to MCF10A, Ratio + anion:no anion: ratio of SI (MCF 10A)
Method in brief: as §1

[4] = test system: PSN1; settings: for Selectivity index (ARPE19): IC50 ARPE-19 / IC50 PSN1; for Selectivity index (MCF10A): IC50 MCF10A / IC50 PSN1; for IC50 / Selectivity indices relative to ARPE-19, Ratio + anion:no anion / Selectivity indices relative to MCF10A, Ratio + anion:no anion: PSN1; for Relative potency (+ anion to no anion), Ratio + anion:no anion: ratio of IC50, PSN1; for Selectivity indices relative to ARPE-19, Ratio + anion:no anion: ratio of SI (ARPE-19); for Selectivity indices relative to MCF10A, Ratio + anion:no anion: ratio of SI (MCF 10A)
Method in brief: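 H460 lung and PSN1 pancreatic carcinoma lines, grown in RPMI-1640 with 10% FBS, were plated at 2 × 10^3 cells/well, dosed across a concentration range for 96 h, then given MTT for 4 h. Formazan absorbance at 540 nm gave IC50 values.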

[5] = mean of replicates, read-out: Mean IC50
[6] = single replicate, read-out: IC50 values for each replicate

Structure (SMILES)	IC50 [1, 5] [nM]	IC50 ([1]; read-out: Mean IC50 values) [nM]	Selectivity index (ARPE19) [1]	Selectivity index (MCF10A) [1]	Relative potency (+ anion to no anion), Ratio + anion:no anion [1]	Selectivity indices relative to ARPE-19, Ratio + anion:no anion [1]	Selectivity indices relative to MCF10A, Ratio + anion:no anion [1]	IC50 [2, 5] [nM]	IC50 ([2]; read-out: Mean IC50 values) [nM]	Selectivity index (ARPE19) [2]	Selectivity index (MCF10A) [2]	Relative potency (+ anion to no anion), Ratio + anion:no anion [2]	Selectivity indices relative to ARPE-19, Ratio + anion:no anion [2]	Selectivity indices relative to MCF10A, Ratio + anion:no anion [2]	Selectivity index (ARPE19) [3]	Selectivity index (MCF10A) [3]	IC50 [3, 5] [nM]	IC50 ([3]; read-out: Mean IC50 values) [nM]	IC50 [3, 6]	Relative potency (+ anion to no anion), Ratio + anion:no anion [3]	also measured
CC(=O)[O-].CC(=O)[O-].CC(=O)[O-].O=P([O-])([O-])[O-].[Zn+2].[Zn+2].[Zn+2].c1ccc(-c2csc(NCCN(CCNc3nc(-c4ccccn4)cs3)CCNc3nc(-c4ccccn4)cs3)n2)nc1.c1ccc(-c2csc(NCCN(CCNc3nc(-c4ccccn4)cs3)CCNc3nc(-c4ccccn4)cs3)n2)nc1 [[L2Zn3(PO4)]3+]	728	728	179.90	19.81	2.28	0.366	0.039	190	190	689.32	75.91	1.12	0.745	0.080	2.94	0.32	44500	44500	52400 nM and 49800 nM and 47600 nM and 22000 nM and 50800 nM	0.75	IC50 [1, 6]: 812 nM and 698 nM and 618 nM and 766 nM; IC50 [2, 6]: 203 nM and 90 nM and 180 nM and 219 nM and 259 nM; Selectivity indices relative to ARPE-19, Ratio + anion:no anion [3]: 1.106; Selectivity indices relative to MCF10A, Ratio + anion:no anion [3]: 0.118; Selectivity index (ARPE19) [4]: 19.60; Selectivity index (MCF10A) [4]: 2.16; IC50 [4, 5]: 6680 nM; IC50 ([4]; read-out: Mean IC50 values): 6680 nM; IC50 [4, 6]: 6730 nM and 6480 nM and 6840 nM; Relative potency (+ anion to no anion), Ratio + anion:no anion [4]: 1.50; Selectivity indices relative to ARPE-19, Ratio + anion:no anion [4]: 0.554; Selectivity indices relative to MCF10A, Ratio + anion:no anion [4]: 0.059
O=P([O-])([O-])Oc1ccccc1.[Cu+2].[Cu+2].[Cu+2].c1ccc(-c2csc(NCCN(CCNc3nc(-c4ccccn4)cs3)CCNc3nc(-c4ccccn4)cs3)n2)nc1.c1ccc(-c2csc(NCCN(CCNc3nc(-c4ccccn4)cs3)CCNc3nc(-c4ccccn4)cs3)n2)nc1 [[L2Cu3(O3POPh)]4+]	51900	39500	2.92	1.30	134.82	0.016	0.008	392	392	293.98	131.32	2.97	0.737	0.359	2.44	1.09	47200	47200	50100 nM and 44300 nM and 47100 nM	4.00	IC50 [1, 6]: 59300 nM and 58600 nM and 40800 nM and 47600 nM and 53000 nM; Selectivity indices relative to ARPE-19, Ratio + anion:no anion [3]: 0.548; Selectivity indices relative to MCF10A, Ratio + anion:no anion [3]: 0.267; Selectivity index (ARPE19) [4]: 536.00; Selectivity index (MCF10A) [4]: 239.43; IC50 [4, 5]: 215 nM; IC50 ([4]; read-out: Mean IC50 values): 215 nM; IC50 [4, 6]: 195 nM and 219 nM and 229 nM; Relative potency (+ anion to no anion), Ratio + anion:no anion [4]: 0.0333; Selectivity indices relative to ARPE-19, Ratio + anion:no anion [4]: 65.686; Selectivity indices relative to MCF10A, Ratio + anion:no anion [4]: 32.009
O=P([O-])([O-])[O-].[Cu+2].[Cu+2].[Cu+2].c1ccc(-c2csc(NCCN(CCNc3nc(-c4ccccn4)cs3)CCNc3nc(-c4ccccn4)cs3)n2)nc1.c1ccc(-c2csc(NCCN(CCNc3nc(-c4ccccn4)cs3)CCNc3nc(-c4ccccn4)cs3)n2)nc1 [[L2Cu3(PO4)]3+]	1680	1680	97.37	29.36	5.74	0.542	0.178	637	637	257.10	77.52	4.83	0.645	0.212	1.36	0.41	121000	121000	108000 nM and 145000 nM and 109000 nM	10.22	IC50 [1, 6]: 704 nM and 1940 nM and 2090 nM and 2240 nM and 1430 nM; IC50 [2, 6]: 613 nM and 668 nM and 654 nM; Selectivity indices relative to ARPE-19, Ratio + anion:no anion [3]: 0.305; Selectivity indices relative to MCF10A, Ratio + anion:no anion [3]: 0.100; Selectivity index (ARPE19) [4]: 9.29; Selectivity index (MCF10A) [4]: 2.80; IC50 [4, 5]: 17600 nM; IC50 ([4]; read-out: Mean IC50 values): 17600 nM; IC50 [4, 6]: 18400 nM and 18600 nM and 17500 nM and 15900 nM; Relative potency (+ anion to no anion), Ratio + anion:no anion [4]: 2.73; Selectivity indices relative to ARPE-19, Ratio + anion:no anion [4]: 1.138; Selectivity indices relative to MCF10A, Ratio + anion:no anion [4]: 0.374
O=P(O)(O)Oc1ccccc1.[Zn+2].[Zn+2].[Zn+2].c1ccc(-c2csc(NCCN(CCNc3nc(-c4ccccn4)cs3)CCNc3nc(-c4ccccn4)cs3)n2)nc1.c1ccc(-c2csc(NCCN(CCNc3nc(-c4ccccn4)cs3)CCNc3nc(-c4ccccn4)cs3)n2)nc1 [[L2Zn3(O3POPh)]4+]	1140	1140	202.86	46.13	3.55	0.413	0.091	230	230	1001.09	227.62	1.35	1.082	0.239	4.94	1.12	46600	46600	45400 nM and 47800 nM and 46800 nM	0.79	Selectivity indices relative to ARPE-19, Ratio + anion:no anion [3]: 1.858; Selectivity indices relative to MCF10A, Ratio + anion:no anion [3]: 0.410; Selectivity index (ARPE19) [4]: 1338.66; Selectivity index (MCF10A) [4]: 304.38; IC50 [4, 5]: 172 nM; IC50 ([4]; read-out: Mean IC50 values): 172 nM; IC50 [4, 6]: 90 nM and 171 nM and 256 nM; activity relative to [L2Zn3(PO4)]3+ or [L2Zn3]6+ ([4]; PSN1 cell line, anion pre-encapsulated): significantly more active; Relative potency (+ anion to no anion), Ratio + anion:no anion [4]: 0.04; Selectivity indices relative to ARPE-19, Ratio + anion:no anion [4]: 37.826; Selectivity indices relative to MCF10A, Ratio + anion:no anion [4]: 8.367
O=S(=O)([O-])[O-].[Cu+2].[Cu+2].[Cu+2].c1ccc(-c2csc(NCCN(CCNc3nc(-c4ccccn4)cs3)CCNc3nc(-c4ccccn4)cs3)n2)nc1.c1ccc(-c2csc(NCCN(CCNc3nc(-c4ccccn4)cs3)CCNc3nc(-c4ccccn4)cs3)n2)nc1 [[L2Cu3(SO4)]4+]	491	491	245.03	101.29	1.68	1.364	0.615	650	650	185.09	76.51	4.92	0.464	0.209	2.28	0.94	52700	52700	63700 nM and 63600 nM and 47200 nM and 43500 nM and 49700 nM and 48300 nM	4.46	IC50 [1, 6]: 544 nM and 586 nM and 260 nM and 478 nM and 588 nM; Selectivity indices relative to ARPE-19, Ratio + anion:no anion [3]: 0.512; Selectivity indices relative to MCF10A, Ratio + anion:no anion [3]: 0.231; Selectivity index (ARPE19) [4]: 246.54; Selectivity index (MCF10A) [4]: 101.91; IC50 [4, 5]: 488 nM; IC50 ([4]; read-out: Mean IC50 values): 488 nM; IC50 [4, 6]: 449 nM and 779 nM and 235 nM; Relative potency (+ anion to no anion), Ratio + anion:no anion [4]: 0.0756; Selectivity indices relative to ARPE-19, Ratio + anion:no anion [4]: 30.213; Selectivity indices relative to MCF10A, Ratio + anion:no anion [4]: 13.624
